Measured values: patent US7888342B2, “Methods of treating fibromyalgia syndrome, chronic fatigue syndrome and pain” (Cypress Bioscience, Inc., priority 2001, dated 2011)

Legend:
[1] = target: NMDA receptor; conditions: read-out: IC50, NMDA receptor antagonistic properties; cited from earlier work
[2] = test system: patients with fibromyalgia syndrome (FMS); test: Example 5: multicenter, double-blind, randomized, placebo-controlled monotherapy study of milnacipran for fibromyalgia; assay type: in vivo, human; conditions: 3-months
Experimental: This was a multicenter, randomized, double-blind, placebo-controlled three-arm study designed which enrolled 1196 patients who meet the 1990 ACR criteria for fibromyalgia syndrome (history of widespread pain and pain in 11 of 18 tender point sites on digital palpation), as well as the more detailed admission criteria outlined in the protocol. […] All randomized medications (placebo and milnacipran) were administered twice a day (BID). (i) Primary Efficacy Assessments: Patient Global Impression of Change (PGIC) administered to patients at visits […] Tx15/ET; Physical Component summary of SF-36 (SF-36 PCS) administered to patients at visits BL2/Tx0, […]) Secondary Efficacy Assessments: Time weighted average (AUC) of weekly average PED morning recall pain score; PGIC and SF-36 PCS administered to patients at visits Tx3 to Tx15. (iii) Additional Efficacy Measurements: The Fibromyalgia Impact Questionnaire (FIQ) total score and physical function, Beck Depression Inventory (BDI), the MOS-Sleep Index Scale, the Arizona Sexual Experiences Scale (ASEX), Patient pain 24 hour and 7 day recall VAS, the SF-36 individual domains, Patient Global Disease Status, Patient Global Therapeutic Benefit, the Multiple Ability Self-report Questionnaire (MASQ, cognitive function), the Multidimensional Health Assessment Questionnaire (MDHAQ), Multidimensional Fatigue Inventory (MFI), and diary assessments including current pain (morning, random daily, and evening reports); overall pain past week (weekly report), overall fatigue in the last week (weekly report), and the extent that pain kept the patient from caring for themselves (weekly report). The primary efficacy assessment of this study was a composite responder status defined by three domains of interest evaluated at visit Tx15. The domains measured were The primary efficacy parameter for an indication in the treatment of pain of fibromyalgia was the composite responder status based on the morning recall pain as recorded in the PED and patient global as recorded on the PGIC at Visit Tx15. The primary efficacy parameter for an indication in the treatment of FMS was the composite responder status based on two domains of pain and patient global as used above in the primary efficacy parameter for the treatment of the pain of fibromyalgia plus the additional domain of physical function as measured by the SF-36 PCS at Visit Tx15. […] A patient was classified as a responder for the treatment of FMS if he or she satisfied the responder criteria for the treatment of pain of fibromyalgia and the following additional criterion (at visit Tx15): • Improvement on the SF-36 PCS score from baseline by an amount at least equivalent to the minimal clinically important difference, as defined in the Statistical Analysis Plan. Table 1 summarizes 3-month results for the Baseline Observation Carried Forward (BOCF), Last Observation Carried Forward (LOCF) and study completer (OC) populations. LOCF is an analysis in which observations are carried forward to the last time point for patients who dropped out. The LOCF analysis treats the carried-forward data as observed data at the last time point. BOCF is an analysis that requires that the patient remain active in the trial to be evaluated for response. If a patient withdrew from the trial for any reason, they were classified as a non-responder irregardless of their pain and global scores at the time of withdrawal.

[3] = test system: patient experiencing fatigue and fibromyalgia; conditions: lofepramine 70 mg bd in combination with L-phenylalanine 500 mg bd; persisted for more than six months; cited from earlier work

Compound: CCN(CC)C(=O)[C@]1(c2ccccc2)C[C@@H]1CN (racemic) [milnacipran, cis-(±)-2-(aminomethyl)-N,N-diethyl-1-phenyl-cyclopropanecarboxamide]
- IC50 [1]: ~6.3 µM
- Composite Pain responder rate, difference from placebo ([2]; BOCF, 100 mg/day (399)): 6.35%
- Composite Pain responders, number ([2]; BOCF, 100 mg/day (399)): 91
- Composite Pain responders, percent ([2]; BOCF, 100 mg/day (399)): (22.81%)
- Composite Syndrome responder rate, difference from placebo ([2]; BOCF, 100 mg/day (399)): 5.81%
- Composite Syndrome responders, number ([2]; BOCF, 100 mg/day (399)): 58
- Composite Syndrome responders, percent ([2]; BOCF, 100 mg/day (399)): (14.54%)
- PGIC Component responder rate, difference from placebo ([2]; BOCF, 100 mg/day (399)): 8.39%
- PGIC Component responders, number ([2]; BOCF, 100 mg/day (399)): 125
- PGIC Component responders, percent ([2]; BOCF, 100 mg/day (399)): (31.33%)
- Pain Component responder rate, difference from placebo ([2]; BOCF, 100 mg/day (399)): 5.89%
- Pain Component responders, number ([2]; BOCF, 100 mg/day (399)): 124
- Pain Component responders, percent ([2]; BOCF, 100 mg/day (399)): (31.08%)
- SF36 PCS Component responder rate, difference from placebo ([2]; BOCF, 100 mg/day (399)): 5.62%
- SF36 PCS Component responders, number ([2]; BOCF, 100 mg/day (399)): 108
- SF36 PCS Component responders, percent ([2]; BOCF, 100 mg/day (399)): (27.07%)
- Composite Pain responder rate, difference from placebo ([2]; BOCF, 200 mg/day (396)): 8.29%
- Composite Pain responders, number ([2]; BOCF, 200 mg/day (396)): 98
- Composite Pain responders, percent ([2]; BOCF, 200 mg/day (396)): (24.75%)
- Composite Syndrome responder rate, difference from placebo ([2]; BOCF, 200 mg/day (396)): 5.16%
- Composite Syndrome responders, number ([2]; BOCF, 200 mg/day (396)): 55
- Composite Syndrome responders, percent ([2]; BOCF, 200 mg/day (396)): (13.89%)
- PGIC Component responder rate, difference from placebo ([2]; BOCF, 200 mg/day (396)): 9.64%
- PGIC Component responders, number ([2]; BOCF, 200 mg/day (396)): 129
- PGIC Component responders, percent ([2]; BOCF, 200 mg/day (396)): (32.58%)
- Pain Component responder rate, difference from placebo ([2]; BOCF, 200 mg/day (396)): 4.86%
- Pain Component responders, number ([2]; BOCF, 200 mg/day (396)): 119
- Pain Component responders, percent ([2]; BOCF, 200 mg/day (396)): (30.05%)
- SF36 PCS Component responder rate, difference from placebo ([2]; BOCF, 200 mg/day (396)): 1.02%
- SF36 PCS Component responders, number ([2]; BOCF, 200 mg/day (396)): 89
- SF36 PCS Component responders, percent ([2]; BOCF, 200 mg/day (396)): (22.47%)
- Composite Pain responder rate, difference from placebo ([2]; LOCF, 100 mg/day (399)): 7.61%
- Composite Pain responders, number ([2]; LOCF, 100 mg/day (399)): 103
- Composite Pain responders, percent ([2]; LOCF, 100 mg/day (399)): (25.81%)
- Composite Syndrome responder rate, difference from placebo ([2]; LOCF, 100 mg/day (399)): 6.56%
- Composite Syndrome responders, number ([2]; LOCF, 100 mg/day (399)): 65
- Composite Syndrome responders, percent ([2]; LOCF, 100 mg/day (399)): (16.29%)
- PGIC Component responder rate, difference from placebo ([2]; LOCF, 100 mg/day (399)): 9.65%
- PGIC Component responders, number ([2]; LOCF, 100 mg/day (399)): 138
- PGIC Component responders, percent ([2]; LOCF, 100 mg/day (399)): (34.59%)
- Pain Component responder rate, difference from placebo ([2]; LOCF, 100 mg/day (399)): 8.66%
- Pain Component responders, number ([2]; LOCF, 100 mg/day (399)): 149
- Pain Component responders, percent ([2]; LOCF, 100 mg/day (399)): (37.34%)
- SF36 PCS Component responder rate, difference from placebo ([2]; LOCF, 100 mg/day (399)): 6.89%
- SF36 PCS Component responders, number ([2]; LOCF, 100 mg/day (399)): 129
- SF36 PCS Component responders, percent ([2]; LOCF, 100 mg/day (399)): (32.33%)
- Composite Pain responder rate, difference from placebo ([2]; LOCF, 200 mg/day (396)): 11.35%
- Composite Pain responders, number ([2]; LOCF, 200 mg/day (396)): 117
- Composite Pain responders, percent ([2]; LOCF, 200 mg/day (396)): (29.55%)
- Composite Syndrome responder rate, difference from placebo ([2]; LOCF, 200 mg/day (396)): 6.68%
- Composite Syndrome responders, number ([2]; LOCF, 200 mg/day (396)): 65
- Composite Syndrome responders, percent ([2]; LOCF, 200 mg/day (396)): (16.41%)
- PGIC Component responder rate, difference from placebo ([2]; LOCF, 200 mg/day (396)): 13.19%
- PGIC Component responders, number ([2]; LOCF, 200 mg/day (396)): 151
- PGIC Component responders, percent ([2]; LOCF, 200 mg/day (396)): (38.13%)
- Pain Component responder rate, difference from placebo ([2]; LOCF, 200 mg/day (396)): 11.22%
- Pain Component responders, number ([2]; LOCF, 200 mg/day (396)): 158
- Pain Component responders, percent ([2]; LOCF, 200 mg/day (396)): (39.90%)
- SF36 PCS Component responder rate, difference from placebo ([2]; LOCF, 200 mg/day (396)): 2.09%
- SF36 PCS Component responders, number ([2]; LOCF, 200 mg/day (396)): 109
- SF36 PCS Component responders, percent ([2]; LOCF, 200 mg/day (396)): (27.53%)
- Composite Pain responder rate, difference from placebo ([2]; OC, 100 mg/day): 13.37%
- Composite Pain responders, percent ([2]; OC, 100 mg/day): (38.56%)
- Composite Pain, m/n = # of responders/# of patients included ([2]; OC, 100 mg/day): 91/236
- Composite Syndrome responder rate, difference from placebo ([2]; OC, 100 mg/day): 11.22%
- Composite Syndrome responders, percent ([2]; OC, 100 mg/day): (24.58%)
- Composite Syndrome, m/n = # of responders/# of patients included ([2]; OC, 100 mg/day): 58/236
- PGIC Component responder rate, difference from placebo ([2]; OC, 100 mg/day): 15.70%
- PGIC Component responders, percent ([2]; OC, 100 mg/day): (47.53%)
- PGIC Component, m/n = # of responders/# of patients included ([2]; OC, 100 mg/day): 125/263
- Pain Component responder rate, difference from placebo ([2]; OC, 100 mg/day): 13.92%
- Pain Component responders, percent ([2]; OC, 100 mg/day): (52.32%)
- Pain Component, m/n = # of responders/# of patients included ([2]; OC, 100 mg/day): 124/237
- SF36 PCS Component responder rate, difference from placebo ([2]; OC, 100 mg/day): 11.40%
- SF36 PCS Component responders, percent ([2]; OC, 100 mg/day): (41.06%)
- SF36 PCS Component, m/n = # of responders/# of patients included ([2]; OC, 100 mg/day): 108/263
- Composite Pain responder rate, difference from placebo ([2]; OC, 200 mg/day): 20.39%
- Composite Pain responders, percent ([2]; OC, 200 mg/day): (45.58%)
- Composite Pain, m/n = # of responders/# of patients included ([2]; OC, 200 mg/day): 98/215
- Composite Syndrome responder rate, difference from placebo ([2]; OC, 200 mg/day): 12.22%
- Composite Syndrome responders, percent ([2]; OC, 200 mg/day): (25.58%)
- Composite Syndrome, m/n = # of responders/# of patients included ([2]; OC, 200 mg/day): 55/215
- PGIC Component responder rate, difference from placebo ([2]; OC, 200 mg/day): 18.76%
- PGIC Component responders, percent ([2]; OC, 200 mg/day): (50.59%)
- PGIC Component, m/n = # of responders/# of patients included ([2]; OC, 200 mg/day): 129/255
- Pain Component responder rate, difference from placebo ([2]; OC, 200 mg/day): 16.44%
- Pain Component responders, percent ([2]; OC, 200 mg/day): (54.84%)
- Pain Component, m/n = # of responders/# of patients included ([2]; OC, 200 mg/day): 119/217
- SF36 PCS Component responder rate, difference from placebo ([2]; OC, 200 mg/day): 5.24%
- SF36 PCS Component responders, percent ([2]; OC, 200 mg/day): (34.90%)
- SF36 PCS Component, m/n = # of responders/# of patients included ([2]; OC, 200 mg/day): 89/255

Compound: CN(CCCN1c2ccccc2CCc2ccccc21)CC(=O)c1ccc(Cl)cc1 [lofepramine]
- effect on fatigue and fibromyalgia [3]: considerable improvement in fatigue and fibromyalgia
